# How the values were obtained:
# [1] = system: GBM; assay: Antiproliferative activity against patient-derived GBM cells assessed as reduction in cell viability after 48 hrs by 5-Ethynyl-2'-deoxyuridine incorporation assay; format: functional, cell-based; conditions: Homo sapiens
# [2] = system: GBM; assay: cells; format: functional, cell-based; conditions: Homo sapiens, 48 h
# Description: Synergistic antiproliferative activity against patient-derived GBM cells assessed as reduction in cell viability after 48 hrs in presence of temozolomide by 5-Ethynyl-2'-deoxyuridine incorporation assay
# [3] = system: GBM; assay: Selectivity ratio of EC50 for antiproliferative activity against patient-derived GBM cells to EC50 for antiproliferative activity against patient-derived GBM cells in presence of temozolomide; format: functional, Homo sapiens
# [4] = system: GBM; assay: Antiproliferative activity against patient-derived GBM cells assessed as cell viability after 48 hrs by 5-Ethynyl-2'-deoxyuridine incorporation assay; format: functional, cell-based; conditions: Homo sapiens
# [5] = system: GBM; assay: Synergistic antiproliferative activity against patient-derived GBM cells assessed as cell viability after 48 hrs in presence of temozolomide by 5-Ethynyl-2'-deoxyuridine incorporation assay; format: functional, cell-based; conditions: Homo sapiens
# [6] = system: GBM; assay: Cytotoxicity against patient-derived GBM cells assessed as LDH release after 96 hrs by spectrophotometric method; format: functional, cell-based; conditions: Homo sapiens
# [7] = system: GBM; assay: Selectivity ratio of IC50 for antiproliferative activity against patient-derived GBM cells to IC50 for antiproliferative activity against patient-derived GBM cells in presence of temozolomide; format: functional, Homo sapiens
Compound,IC50 [1] [nM],IC50 [2] [nM],Ratio EC50 [3],EC50 [4] [nM],EC50 [5] [nM],EC50 [6] [nM],Ratio IC50 [7]
C[C@@H](Oc1cc(-c2cnn(C3CCN(C4=C(/C=C/C5=[N+](C)c6ccccc6C5(C)C)CCC/C4=C\C=C4\N(C)c5ccccc5C4(C)C)CC3)c2)cnc1N)c1c(Cl)ccc(F)c1Cl.[I-],4.7,1,3,50,15,93.1,
C[C@@H](Oc1cc(-c2cnn(C3CCNCC3)c2)cnc1N)c1c(Cl)ccc(F)c1Cl [CRIZOTINIB],540,480,1.7,5600,3200,4300,1.13
